Here are results for 1 molecule from patent US20210094922A1, “Dyes for Analysis of Soluble Protein Aggregates or Misfolded Protein Oligomers” (The Penn State Research Foundation, priority 2018, published 2021).

The structures appear in SMILES notation. Entries after “also recorded” stand apart in the source; their conditions may differ.

Format in all cases: cell-based, human
Assay [1] concerns the target T1, (UniProt P0A3G2+P42858, A155T/A167V/A172T/A224E/C128F/C176G/D78G/DEL18-38/E160K/E257K/H272N/K175M/K195N/L47V/L88M/N227D/S58T/T264A/Y273L/Y87F).
T1 construct: using the Huntingtin exon 1 protein (Htt) with expansion of a polyglutamine tract within its N-terminal domain; expressed in transfected cells; host or cells: HEK293T
Briefly: AggTag imaging of Htt-Halo aggregation in HEK293T cells. Particulars: non-aggregating control. The protocol: (§1) (a) The dual-probe live cell imaging experiment. Halo-tag fusion proteins were labeled in the presence of both the non-fluorogenic coumarin ligand (1 μM) and 4 (1 µM). The newly synthesized Htt-Halo proteins were equally labeled with either the coumarin ligand or 4. The coumarin ligand is fluorescent both before and after aggregation of Htt-Halo. By contrast, signal of 4 exclusively arises from Htt-Halo aggregates. (b) Dual probes labeling confirms expression of proteins. The Htt Q0-Halo and Htt Q97-Halo proteins were transiently transfected and expressed in HEK293T cells for 24 h, in the presence of 1 μM coumarin Halo-Tag ligand and 1 μM of 4. In cells expressing Htt Q97-Halo proteins, punctate structures in the coumarin channel coincided with the turn-on fluorescence of 4. […] (c) The Htt Q97 protein, without a Halo-Tag, was transiently transfected and expressed in HEK293T cells for 24 h, in the presence of 1 μM of 4. No turn-on fluorescence of 4 was found. Red: fluorescence from the SOD1(V31A)-Halo-4 conjugate. Blue: coumarin Halo-Tag ligand in (a) or nucleus stained by Hoechst 33342 in (b). Scale bar: 10 μm. (d) Fluorescent intensity of cell lysates from samples as represented in FIG. 4d. Error bars: standard error (n=3).
(§2) Confocal microscope imaging. The HEK293T cells were seeded at 25% confluency 24 h prior to transfection in poly-D-lysine coated 35 mm glass bottom dishes (MatTek Corporation). Cells were grown in DMEM media supplemented with 10% FBS and Penicillin-Streptomycin antibiotics until they reached 50-60% confluency. Transfection was carried out using X-tremeGene™ 9 DNA transfection reagent (Roche) according to the manufacturer's instructions. Proteins were expressed for 24 h prior to analyses. To label proteins with Halo-Tag fusion, protein expression was carried out in the presence of 1 μM 4 or 1 μM TMR Halo-Tag ligand to form covalent conjugate with the Halo-Tag domain. For a dual-probe labeling scheme, 1 μM 4 and 1 μM coumarin Halo-Tag ligand to simultaneously form covalent conjugate with the Halo-Tag domain.
(§3) To wash off unbound Halo ligands, the cells were washed extensively by replacing media with fresh DMEM and incubating for 30 min at 37° C. For confocal fluorescence imaging with either 4-labeled Halo fusion, TMR-labeled Halo fusion, EGFP fusion, or mCherry fusion proteins, DMEM media was replaced with FluoroBrite™ DMEM media (ThermoFisher) supplemented with 10% FBS, and Hoechst 33342 (0.1 μg/mL). For confocal fluorescence imaging with either dual-probe labeled Halo fusion with 4 and coumarin ligand, DMEM media was replaced with FluoroBrite™ DMEM media (ThermoFisher) supplemented with 10% FBS. The samples were incubated for 30 min prior to imaging. Media was replaced with fresh FluoroBrite™ DMEM media (ThermoFisher) supplemented with 10% FBS prior to imaging. Confocal images were obtained using Olympus FluoView™ FV1000 confocal microscope. The EGFP fluorescence was visualized using blue argon (488 nm) laser. Nuclear staining and coumarin fluorescence was visualized using violet laser (405 nm). Fluorescence of TMR and 4 were visualized using green HeNe laser (543 nm).

In another assay the test system is Htt-97Q-Halo. Described as above. The conditions noted are these: control. The protocol: as §1, §2, §3
Assay [2] deals with SOD1(V31A)-Halo (Rhodococcus rhodochrous, UniProt P0A3G2, A155T/A167V/A172T/A224E/C128F/C176G/D78G/E160K/E257K/H272N/K175M/K195N/L47V/L88M/N227D/P291S/S58T/T264A/Y273L/Y87F). Description: AggTag imaging of NaAsO2-induced SOD1(V31A)-Halo aggregation in HEK293T cells. Details: expressed in transfected cells; host or cells: HEK293T. The protocol:
(§4) During protein expression, medium is supplemented with 1 μM of coumarin ligand and 1 μM of 4 to enable a simultaneous dual-probe labeling to Halo-Tag. Note: Halo-Tag locates in both cytoplasm and nucleus. Blue: fluorescence from the Halo-Tag⋅coumarin conjugate. Red: fluorescence from the Halo-Tag-4 conjugate. Scale bar: 10 μm.
as §2
(§5) HEK293T cultures were seeded at 25% confluency 24 h prior to transfection in 12-well plate for time dependent fluorescence plate reader analysis or 35 mm glass bottom culture dishes (Poly-d-lysine coated, MatTek Corporation). Cells were grown in DMEM medium supplemented with 10% FBS and penicillin-streptomycin antibiotics until they reached 50-60% confluency. Transfection was performed using X-tremeGene™ 9 DNA transfection reagent (Roche). After 24 h of protein expression and co-translational labeling, medium was replaced with fresh DMEM to diffuse out unbound ligands. After 30 min, media was replaced by fresh DMEM medium containing DMSO vehicle or NaAsO2 (50 μM). […] At indicated time points, fluorescence reading was obtained using a Tecan M1000Pro fluorescence plate reader. Fluorescence intensity was recorded at Ex=530 nm/Em=600 nm for 3 and Ex=450 nm/Em=480 nm for ThT. […] Fluorescence of 3 was measured at Ex=530 nm/Em=600 nm.

In assay [3] the target is SOD1(V31A)-Halo (UniProt P00441+P0A3G2, A155T/A167V/A172T/A224E/C128F/C176G/D78G/E160K/E257K/H272N/K175M/K195N/L47V/L88M/N227D/S58T/T264A/V32A/Y273L/Y87F). The assay is described as above. Details: expressed in transfected cells; host or cells: HEK293T. Particulars: NaAsO2. Here is the method:
as §4, §2, §5

SOD1(V31A)-Halo (Rhodococcus rhodochrous, UniProt P0A3G2, A155T/A167V/A172T/A224E/C128F/C176G/D78G/E160K/E257K/H272N/K175M/K195N/L47V/L88M/N227D/P291S/S58T/T264A/Y273L/Y87F), sequence (P0A3G2 other isoform, or with tags, fused parts or gaps with the stated changes): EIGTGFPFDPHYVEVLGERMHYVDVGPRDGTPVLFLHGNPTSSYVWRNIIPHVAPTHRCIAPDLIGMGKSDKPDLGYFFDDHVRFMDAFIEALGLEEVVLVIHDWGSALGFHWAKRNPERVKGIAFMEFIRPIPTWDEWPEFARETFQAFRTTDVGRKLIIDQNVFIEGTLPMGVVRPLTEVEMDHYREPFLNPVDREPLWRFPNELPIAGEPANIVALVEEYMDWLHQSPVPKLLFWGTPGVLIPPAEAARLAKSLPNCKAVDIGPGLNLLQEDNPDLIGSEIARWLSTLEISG
T1 sequence (P42858+P0A3G2 fused with the stated changes): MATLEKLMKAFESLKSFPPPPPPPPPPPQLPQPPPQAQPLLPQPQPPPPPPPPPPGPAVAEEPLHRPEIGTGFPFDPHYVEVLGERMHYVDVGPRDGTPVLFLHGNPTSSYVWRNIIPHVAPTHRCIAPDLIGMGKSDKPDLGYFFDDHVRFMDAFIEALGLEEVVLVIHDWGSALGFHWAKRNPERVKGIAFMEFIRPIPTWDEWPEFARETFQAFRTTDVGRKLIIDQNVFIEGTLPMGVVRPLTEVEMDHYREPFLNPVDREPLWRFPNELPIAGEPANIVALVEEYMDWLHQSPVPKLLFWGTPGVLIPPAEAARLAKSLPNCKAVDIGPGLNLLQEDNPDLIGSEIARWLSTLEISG
SOD1(V31A)-Halo (UniProt P00441+P0A3G2, A155T/A167V/A172T/A224E/C128F/C176G/D78G/E160K/E257K/H272N/K175M/K195N/L47V/L88M/N227D/S58T/T264A/V32A/Y273L/Y87F), sequence (P00441+P0A3G2 fused with the stated changes): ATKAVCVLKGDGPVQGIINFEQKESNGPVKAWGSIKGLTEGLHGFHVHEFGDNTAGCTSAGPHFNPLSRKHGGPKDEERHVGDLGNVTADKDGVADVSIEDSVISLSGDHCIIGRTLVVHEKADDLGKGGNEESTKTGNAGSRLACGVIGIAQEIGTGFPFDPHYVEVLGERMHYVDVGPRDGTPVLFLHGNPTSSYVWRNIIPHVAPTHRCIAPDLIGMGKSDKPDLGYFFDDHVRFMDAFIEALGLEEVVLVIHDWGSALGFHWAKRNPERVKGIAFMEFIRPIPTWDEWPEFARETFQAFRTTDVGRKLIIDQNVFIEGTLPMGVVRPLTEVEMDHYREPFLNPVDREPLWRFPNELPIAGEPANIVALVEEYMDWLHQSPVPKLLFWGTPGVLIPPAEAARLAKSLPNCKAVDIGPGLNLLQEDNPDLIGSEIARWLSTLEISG

Turning to `CN(C)c1ccc(/C=C2N=C(/C=C/c3ccc(N(CCO)CCO)cc3)N(CC(=O)N[C@H]3CC[C@H](C(=O)NCCOCCOCCCCCCCl)CC3)C\2=O)cc1` [Compound 4, (1r,4r)-4-(2-((Z)-2-((E)-4-(bis(2-hydroxyethyl)amino)styryl)-4-(4-(dimethylamino)benzylidene)-5-oxo-4,5-dihydro-1H-imidazol-1-yl)acetamido)-N-(2-(2-((6-chlorohexyl)oxy)ethoxy)ethyl)cyclohexanecarboxamide], the “fluorescence in cells expressing Htt-0Q-Halo” value in assay [1] was “dark background”. For the same molecule, in the assay on Htt-97Q-Halo, the “fluorescence in cells co-expressing Htt-Q97-GFP and Halo-Tag or just expressing Htt-Q97” value is “showed no fluorescence of 4”. For the same molecule, the “fluorescence in cells co-expressing Halo-Tag and SOD1-V31A-GFP” value at SOD1(V31A)-Halo [2] (NaAsO2 stressor 50 μM, 18 h, 37° C.) is reported as “turn-on fluorescence was not observed”. Further, the “fluorescence in cells expressing Halo-Tag alone under stress” value on SOD1(V31A)-Halo [2] (NaAsO2 stressor, Halo-4 conjugate) was “remained dark in stressed cells; also recorded: fluorescence was not observed”. In addition, the “fluorescence of SOD1(V31A)-Halo labeled cells before and after stress” value on SOD1(V31A)-Halo [3] is “dark before stress but exhibited both diffuse and punctate fluorescent structures in stressed cells”.
